# In patent US11679107B2 (Eisai R&D Management Co., Ltd., priority 2018, dated 2023):
# Read-outs that look alike come from different tables or passages of the source.
# Experiments:
# [1] = tested on: Ad2 variant pre-mRNAs spliced in HeLa S3 nuclear extracts; experiment: In vitro splicing assay (IVS), RT-qPCR of spliced product; type: biochemical; conditions: for IC50: geometric mean; for Ratio Ad2.1/2.2: ratio of IVS IC50 Ad2.1 to Ad2.2
# Procedure, shortened: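 Read-out is one-step TaqMan RT-qPCR of spliced Ad2 mRNA with Ftz as reference, normalized to DMSO and fit by non-linear regression. Reactions held HeLa S3 nuclear extract, 2 ng Ad2-derived pre-mRNA and test compound, with 15 min preincubation. Splicing was started with ATP-containing activation buffer and run 90 min at 30 °C.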
# [2] = tested on: Panc 05.04 cells (SF3b K700E mutant); experiment: Cell proliferation and viability, CellTiter-Glo, 72 hours; type: cell-based; conditions: 72 h; for GI50: Panc 05.04, read-out: CTGlo-ATS GMean GI50 (nM) 72 h PANC0504.1, geometric mean
# Procedure, shortened: (§1)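 ATP luminescence (CellTiter-Glo) was measured 72 h after treatment with compound at 10 μM–100 pM (11 points, half-log) in 0.1% DMSO. The Panc line was grown in RPMI-1640 plus insulin and 15% FBS, the other in 10% FBS. Data were normalised to time zero and vehicle controls, where −100% is cidal and 0% static.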
# [3] = tested on: NCI-H1568 cells (high MCL1); experiment: as above; type: cell-based; conditions: 72 h; for GI50: NCI-H1568, read-out: CTGlo-ATS GMean GI50 (nM) 72 h NCIH1568.1, geometric mean
# Procedure, shortened: as §1
# SF3b complexes = target: T1, SF3b complexes (Homo sapiens, UniProt O75533+Q7RTV0); experiment: Scintillation proximity assay (SPA) with [3H]-labelled pladienolide probe; type: binding; conditions: SF3B1 (WT); geometric mean; read-out: SPA-ATS GMean IC50 (nM) SF3B1 (WT)
# T1 construct: endogenous in cells; host or cells: Nuclear extracts; A HeLa S3 extract preparation is described for the in vitro splicing assay
# Procedure, shortened: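 SF3b complexes captured from nuclear extracts on anti-SF3B1 antibody SPA beads; test compounds pre-incubated 30 min before 2.5 nM [3H]-pladienolide probe added, then 30 min incubation. Bound probe read by scintillation; values from non-linear regression of concentration–response curves.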
# [4] = Ad2.1 pre-mRNA substrate, read-out: qPCR-IVS-ATS GMean IC50 (nM) Ad2.1
# [5] = Ad2.2 pre-mRNA substrate, read-out: qPCR-IVS-ATS GMean IC50 (nM) Ad2.2
# [6] = PANC0504.1 cells, −100% cidal, 0% static, 100% maximal growth
# [7] = NCIH1568.1 cells, −100% cidal, 0% static, 100% maximal growth
# [8] = PANC0504.1, -100% = cidal, 0% = static, 100% = uninhibited growth
# [9] = NCIH1568.1, -100% = cidal, 0% = static, 100% = uninhibited growth
Structure (SMILES),"IC50 [1, 4] [nM]","IC50 [1, 5] [nM]","CTGlo-ATS Mean MinResponse % 72 h PANC0504.1 [2, 6] [%]",GI50 ([2]; PANC0504.1 cells) [nM],GI50 ([3]; NCIH1568.1 cells) [nM],"CTGlo-ATS Mean MinResponse % 72 h NCIH1568.1 [3, 7] [%]",IC50 (SF3b complexes) [nM],Ratio Ad2.1/2.2 [1],"CTGlo-ATS Mean MinResponse % 72 h PANC0504.1 [2, 8] [%]",GI50 ([2]; PANC0504.1) [nM],"CTGlo-ATS Mean MinResponse % 72 h NCIH1568.1 [3, 9] [%]",GI50 ([3]; NCIH1568.1) [nM]
CN[C@H]1CCN(c2cc(F)cc(/C=C(\C)[C@H]3OC(=O)C[C@H](O)CC[C@H](C)[C@@H](OC(=O)N4CCN(C)CC4)/C=C/[C@@H]3C)c2)C1 [Compound 39],63.1,32,−89.747,50.1,45.6,−97.412,26,–,–,–,–,–
COCC(=O)N1CCN(c2cc(F)cc(/C=C(\C)[C@H]3OC(=O)C[C@H](O)CC[C@H](C)[C@@H](OC(=O)N4CCN(C)CC4)/C=C/[C@@H]3C)c2)CC1 [Compound 108],16.8,14.3,−82.618,3.31,2.47,−79.118,2.03,–,–,–,–,–
CC[C@H](O)[C@@H](C)C(=O)N1CCN(c2cc(F)cc(/C=C(\C)[C@H]3OC(=O)C[C@H](O)CC[C@H](C)[C@@H](OC(=O)N4CCN(C)CC4)/C=C/[C@@H]3C)c2)CC1 [Compound 72],35.8,14,−75.581,5.68,4.19,−80.730,4.66,–,–,–,–,–
"C/C(=C\c1cc(F)cc(N2CCOCC2)c1)[C@H]1OC(=O)C[C@H](O)CC[C@H](C)[C@@H](OC(=O)N2CC[C@H](N(C)C)C2)/C=C/[C@@H]1C [Compound 244, [(2S,3S,4E,6R,7S,10R)-2-[(E)-1-(3-fluoro-5-morpholin-4-ylphenyl)prop-1-en-2-yl]-10-hydroxy-3,7-dimethyl-12-oxo-1-oxacyclododec-4-en-6-yl] (3S)-3-(dimethylamino)pyrrolidine-1-carboxylate]",3580,38.5,–,–,–,–,3.38,93.018,−95.630,27.6,−65.165,20.2
C/C(=C\c1cc(F)cc(N2CCN(CC3CC3)C2=O)c1)[C@H]1OC(=O)C[C@H](O)CC[C@H](C)[C@@H](OC(=O)N2CCN(C)CC2)/C=C/[C@@H]1C [Compound 68],1870,35.7,−93.925,11.7,12.4,−67.270,3.39,–,–,–,–,–
"C/C(=C\c1cc(F)cc(N2CCOCC2)c1)[C@H]1OC(=O)C[C@H](O)CC[C@H](C)[C@@H](OC(=O)N2CCC(N(C)C)C2)/C=C/[C@@H]1C (stereo in doubt) [Compound 243, [(2S,3S,4E,6R,7S,10R)-2-[(E)-1-(3-fluoro-5-morpholin-4-ylphenyl)prop-1-en-2-yl]-10-hydroxy-3,7-dimethyl-12-oxo-1-oxacyclododec-4-en-6-yl] (3S)-3-(dimethylamino)pyrrolidine-1-carboxylate]",98.4,38.5,–,–,–,–,3.59,2.553,−92.290,10.4,−71.678,10.6
"C/C(=C\c1cc(F)cc(N2CC[C@H](NS(C)(=O)=O)C2)c1)[C@H]1OC(=O)C[C@H](O)CC[C@H](C)[C@@H](OC(=O)N2CCN(C)CC2)/C=C/[C@@H]1C [Compound 217, [(2S,3S,4E,6R,7S,10R)-2-[(E)-1-[3-fluoro-5-[(3S)-3-(methanesulfonamido)pyrrolidin-1-yl]phenyl]prop-1-en-2-yl]-10-hydroxy-3,7-dimethyl-12-oxo-1-oxacyclododec-4-en-6-yl] 4-methylpiperazine-1-carboxylate]",18.4,16.6,–,–,–,–,3.18,1.107,−91.288,15,−71.339,13.8
